We go through 82 molecules from ChEMBL document CHEMBL1131937 (Bioorg Med Chem Lett, 1999).

Test [1] concerns the target T1, Adrenergic receptor alpha-2 (Rattus norvegicus, UniProt P22086+P19328+P22909).
T1 sequence (P22086 whole entry): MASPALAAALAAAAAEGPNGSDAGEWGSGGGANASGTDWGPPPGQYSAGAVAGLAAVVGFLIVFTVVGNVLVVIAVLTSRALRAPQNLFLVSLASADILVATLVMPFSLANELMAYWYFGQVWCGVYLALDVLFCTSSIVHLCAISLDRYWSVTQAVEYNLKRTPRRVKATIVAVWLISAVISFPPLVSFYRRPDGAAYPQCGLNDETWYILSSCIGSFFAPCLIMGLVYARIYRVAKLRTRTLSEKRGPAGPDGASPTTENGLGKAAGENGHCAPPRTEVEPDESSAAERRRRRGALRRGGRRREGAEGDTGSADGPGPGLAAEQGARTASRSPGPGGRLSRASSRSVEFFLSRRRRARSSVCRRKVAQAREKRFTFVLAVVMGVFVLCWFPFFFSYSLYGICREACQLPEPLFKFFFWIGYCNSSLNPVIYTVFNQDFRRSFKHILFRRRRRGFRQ
T1 sequence (P19328 whole entry): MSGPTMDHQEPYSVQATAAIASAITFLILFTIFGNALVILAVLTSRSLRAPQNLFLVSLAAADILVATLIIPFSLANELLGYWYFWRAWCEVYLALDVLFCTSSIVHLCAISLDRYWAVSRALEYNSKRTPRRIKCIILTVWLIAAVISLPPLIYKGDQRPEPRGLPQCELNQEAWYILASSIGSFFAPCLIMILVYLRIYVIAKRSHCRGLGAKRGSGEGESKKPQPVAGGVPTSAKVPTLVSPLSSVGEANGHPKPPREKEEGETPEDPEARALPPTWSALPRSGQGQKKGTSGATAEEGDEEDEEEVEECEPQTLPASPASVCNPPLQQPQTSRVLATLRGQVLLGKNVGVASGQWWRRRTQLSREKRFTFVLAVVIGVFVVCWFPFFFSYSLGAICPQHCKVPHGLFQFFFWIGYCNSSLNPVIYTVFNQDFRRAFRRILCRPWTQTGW
T1 sequence (P22909 whole entry): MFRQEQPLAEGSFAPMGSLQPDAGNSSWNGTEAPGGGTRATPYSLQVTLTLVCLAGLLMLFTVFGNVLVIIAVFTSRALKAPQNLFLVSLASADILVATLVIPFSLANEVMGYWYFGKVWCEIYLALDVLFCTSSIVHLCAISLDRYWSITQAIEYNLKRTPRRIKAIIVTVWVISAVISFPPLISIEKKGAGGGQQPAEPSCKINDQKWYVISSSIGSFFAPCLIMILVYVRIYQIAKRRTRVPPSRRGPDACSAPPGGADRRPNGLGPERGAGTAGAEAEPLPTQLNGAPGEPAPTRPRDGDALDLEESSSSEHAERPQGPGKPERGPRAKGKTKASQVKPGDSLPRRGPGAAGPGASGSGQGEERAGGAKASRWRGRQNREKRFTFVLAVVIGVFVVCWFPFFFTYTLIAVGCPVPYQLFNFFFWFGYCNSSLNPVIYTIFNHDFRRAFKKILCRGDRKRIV
Put plainly: Inhibition of [3H]clonidine binding to the rat alpha-2-adrenoceptor. In kind it is protein assay. On the set-up: Log Ki: unit not given here.

For test [2], the target named is T2, Phenylethanolamine N-methyltransferase (Bos taurus, UniProt P10938).
T2 sequence (P10938 whole entry): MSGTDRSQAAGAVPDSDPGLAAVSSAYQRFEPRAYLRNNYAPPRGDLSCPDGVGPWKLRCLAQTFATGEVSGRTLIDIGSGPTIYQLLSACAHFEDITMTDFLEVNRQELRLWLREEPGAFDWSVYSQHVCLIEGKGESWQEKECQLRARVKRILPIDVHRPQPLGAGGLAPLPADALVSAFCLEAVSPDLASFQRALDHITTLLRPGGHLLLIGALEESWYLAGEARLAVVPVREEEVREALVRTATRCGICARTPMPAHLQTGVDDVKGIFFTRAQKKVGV
Put plainly: Inhibitory activity against bovine adrenal phenylethanolamine N-methyl-transferase (PNMT).

Test [3] is described as follows: Relative affinity for alpha-2-adrenoceptor and phenylethanolamine N-methyl-transferase (PNMT). Further details: reference not given here.

Regarding `C[C@@H]1Cc2ccc([N+](=O)[O-])cc2CN1`, in test [1], the “Log Ki” value is 4.28. The same measure, in the same setting: the figure for `OC[C@@H]1Cc2ccccc2CN1` is 4.77; for `Oc1ccc2c(c1)CNCC2` it is 5.65. Molecule `COc1ccc2c3c(ccc2c1)CCNC3` gave a Ki in test [2] of 14.1 µM.

In the case of `O=C(c1ccc2c(c1)CNCC2)C(F)(F)F`, the “Log Ki” value in test [1] was 4.49. In test [2], `Brc1ccc2c(c1)CNCC2` had a Ki of 0.295 µM. As for `NCc1cccc2ccccc12`, in test [1], the “Log Ki” value turned out to be 5.79. Still for that read-out and setting: the figure for `C[C@@H](N)c1ccccc1` is 3.54; for `COC(=O)c1ccc2c(c1)CNCC2` it is 5.34.

`Oc1cccc2c1CCNC2`: in test [1], the “Log Ki” value came out at 6.11.

Regarding `OC[C@H]1Cc2ccc(Cl)c(Cl)c2CN1`, the Selectivity in test [3] amounted to 0.32. Same read-out and setting: to `FC(F)(F)[C@H]1Cc2ccccc2CN1` belongs 0.05. `COc1ccc(OC)c2c1CCNC2` showed a Ki in test [2] of 1000 µM. Further, the “Log Ki” value in test [1] stood at 6.25. Take `c1ccc2c(c1)CCCCNC2`: the “Log Ki” value in test [1] is on record as 4.81. Molecule `CN1CCCCc2ccccc2C1` showed a Ki in test [2] of 1150 µM. The “Log Ki” value in test [1] is reported as 5.39. In the same order, the values of `O=[N+]([O-])c1ccc2c(c1)CNCCC2` are 0.389 µM and 4.18.

As for `NS(=O)(=O)c1ccc2c(c1)CNCCC2`, the Ki in test [2] is 1.66 µM. The “Log Ki” value in test [1] was 3.82. The like results for `Oc1ccc2c(c1)CCNC2` were, in that order, 5.75 µM and 6.

`NS(=O)(=O)c1ccc2c(c1)CN[C@H](C(F)(F)F)C2` displayed a Selectivity in test [3] of 26. The affinity in test [1], expressed as Ki, was 400 µM. Take `O=C(c1ccccc1)c1ccc2c(c1)CNCC2`: the “Log Ki” value in test [1] was 4.57. On to `CNS(=O)(=O)c1ccc2c(c1)CNCC2`, for which, in test [1], the “Log Ki” value turned out to be 3.88. `FC(F)(F)C1Cc2ccc(Br)cc2CN1` (stereo unspecified) returned a Selectivity in test [3] of over 1900. Moreover, the inhibition constant Ki in test [1] is over 1000 µM. As for `Oc1ccc2c3c(ccc2c1)CCNC3`, the “Log Ki” value in test [1] was 7.1. In the case of `NS(=O)(=O)c1ccc2c(c1)CN[C@@H](C(F)(F)F)C2`, the Selectivity in test [3] was determined as 61. With `OC[C@H]1Cc2ccccc2CN1`, in test [1], the “Log Ki” value was 5.36. On to `CS(=O)(=O)c1ccc2c(c1)CN[C@@H](C(F)(F)F)C2`, for which the Selectivity in test [3] was 190. Still for that read-out and setting: the figure for `NS(=O)(=O)c1ccc2c(c1)CNC(CO)C2` (stereo unspecified) is 290. Turning to `c1ccc2c(c1)CNCCN2`, the “Log Ki” value in test [1] was 5.58.

`OC[C@@H]1Cc2ccc(Cl)c(Cl)c2CN1`: the Selectivity in test [3] came to 2.1.

As for `CS(=O)(=O)c1ccc2c(c1)CN[C@H](C(F)(F)F)C2`, in test [3], the Selectivity was 22. `NCc1ccc2c(c1)CNCC2`: the “Log Ki” value in test [1] is reported as 4.92. The molecule `OCC1Cc2ccc(Cl)c(Cl)c2CN1` (stereo unspecified) registered a Selectivity in test [3] of 0.39. Regarding `Nc1ccc2c(c1)CNCCC2`, in test [2], the Ki was 24 µM. Also, the “Log Ki” value in test [1] stood at 3.96. In test [3], `N#Cc1ccc2c(c1)CN[C@@H](C(F)(F)F)C2` gave a Selectivity of 15. In the case of `COC(=O)Nc1ccc2c(c1)CNCC2`, the Ki in test [2] is 186 µM. Further, in test [1], the “Log Ki” value came to 5.04. With `CC(=O)c1ccc2c(c1)CNCC2`, the “Log Ki” value in test [1] was 5.21.

With `N#Cc1ccc2c(c1)CNCC2`, the “Log Ki” value in test [1] amounted to 5.14. Same read-out and setting: the figure for `C=CCS(=O)(=O)c1ccc2c(c1)CNCC2` is 4.02; for `C[C@H](N)c1ccccc1` it is 3.92; for `C[C@H]1Cc2ccccc2CN1` it is 6.31. `C[C@@H]1Cc2ccc(Cl)c(Cl)c2CN1`: in test [2], the inhibitory constant (Ki) was 0.355 µM. The “Log Ki” value in test [1] was 6.66. In the same order, the values of `Brc1ccc2c(c1)CNCCC2` are 0.288 µM and 5.05. The like results for `C[C@H]1CCc2ccc(Cl)c(Cl)c2CN1` were, in that order, 5.75 µM and 5.36. In the same order, the values of `C[C@H](N)c1ccc(Cl)c(Cl)c1` are 5.01 µM and 4.44. Molecule `Cc1ccc2c(c1)CNCC2` gave a Ki in test [2] of 2.69 µM. In test [1], the “Log Ki” value amounted to 6.44. Take `c1ccc2c(c1)CCNC2` [1,2,3,4-TETRAHYDROISOQUINOLINE]: in test [1], the “Log Ki” value is 6.45. As to `Clc1ccc2c(c1Cl)CNCC2`, the “Log Ki” value in test [1] amounted to 7.66. Turning to `OCc1ccc2c(c1)CNCC2`, the “Log Ki” value in test [1] stood at 5.64. Regarding `FC(F)(F)[C@@H]1Cc2ccc(Br)cc2CN1`, the Selectivity in test [3] was 2.6.

`C[C@@H](N)c1ccc(Cl)c(Cl)c1` had an inhibitory constant (Ki) in test [2] of 32.4 µM. The “Log Ki” value in test [1] stood at 4.39. The molecule `O=S(=O)(c1ccc2c(c1)CNCC2)C(Cl)(Cl)Cl` showed a Ki in test [2] of 1.26 µM. For the same molecule, in test [1], the “Log Ki” value turned out to be 4.47. In the same order, the values of `O=[N+]([O-])c1cc2c(c([N+](=O)[O-])c1)CCNC2` are 57.5 µM and 4.11. For `CSc1ccc2c(c1)CNCC2`, the inhibition constant (Ki) in test [2] is 0.617 µM. Besides, the “Log Ki” value in test [1] was determined as 6.39. In the case of `O=S(=O)(c1ccccc1)c1ccc2c(c1)CNCC2`, the “Log Ki” value in test [1] is given as 4.67. Still for that read-out and setting: the figure for `Clc1ccc2c(c1Cl)CNCCC2` is 5.39. Consider `C[C@@H]1Cc2sc3ccccc3c2CN1`, for which, in test [3], the Selectivity was 0.08. With `c1ccc2c(c1)CCCNC2`, the “Log Ki” value in test [1] came out at 4.97. `CC1Cc2sc3ccccc3c2CN1` (stereo unspecified) showed a Selectivity in test [3] of 1.3. Turning to `O=[N+]([O-])c1cc2c(c([N+](=O)[O-])c1)CCCNC2`, affinity in test [2] was put at a Ki of 36.3 µM. For the same molecule, in test [1], the “Log Ki” value is 4.6. For `C[C@H]1Cc2ccc([N+](=O)[O-])cc2CN1`, in test [1], the “Log Ki” value amounted to 4.72.

As to `O=C(O)c1ccc2c(c1)CNCC2`, the “Log Ki” value in test [1] is listed as 3.33.

`C[C@@H]1Cc2ccccc2CN1`: the “Log Ki” value in test [1] turned out to be 5.24. In test [3], `FC(F)(F)[C@H]1Cc2ccc(Br)cc2CN1` yielded a Selectivity of 0.83. Consider `O=[N+]([O-])c1ccc2c(c1)CN[C@@H](C(F)(F)F)C2`, for which the Selectivity in test [3] amounted to 240. In turn, `Oc1cc2c(cc1O)CNCC2` gave an inhibition constant Ki in test [2] of 3.89 µM. For the same molecule, the “Log Ki” value in test [1] is 6.32. With `NC(=O)c1ccc2c(c1)CNCC2`, the “Log Ki” value in test [1] was 4.64. Still for that read-out and setting: to `COc1cccc2c1CNCC2` belongs 6.52; to `COc1cccc2c1CCNC2`, 6.89.

In the case of `O=[N+]([O-])c1ccc2c(c1)CN[C@H](C(F)(F)F)C2`, in test [3], the Selectivity worked out at 25. Regarding `Ic1ccc2c(c1)CNCC2`, in test [1], the “Log Ki” value is given as 6.66. For `c1ccc(Cc2ccc3c(c2)CNCC3)cc1`, in test [2], the affinity corresponds to a Ki of 61.7 µM. The “Log Ki” value in test [1] was determined as 5.33. In the case of `O=[N+]([O-])c1ccc2c(c1)CNCCCC2`, the Ki in test [2] was 4.57 µM. Also, the “Log Ki” value in test [1] is 4.08.

Take `Nc1ccc2c(c1)CNCC2`: the “Log Ki” value in test [1] worked out at 5.51. `CS(=O)(=O)c1ccc2c(c1)CNCCC2`: the Ki in test [2] is 7.76 µM. In addition, the “Log Ki” value in test [1] is on record as 3.82. The like results for `FC(F)(F)c1ccc2c(c1)CNCC2` were, in that order, 0.182 µM and 5.89. `COc1ccc2c(c1)CNCC2`: the “Log Ki” value in test [1] is recorded as 6.33. In the case of `C[C@H]1Cc2ccc(Cl)c(Cl)c2CN1`, the inhibition constant (Ki) in test [2] was 0.912 µM. In test [1], the “Log Ki” value was 6.37. In the same order, the values of `Oc1cccc2c1CNCC2` are 603 µM and 6.14. As to `CSc1ccc2c(c1)CNCCC2`, in test [2], the affinity, expressed as Ki, was 1.05 µM. Also, the “Log Ki” value in test [1] is reported as 4.92.

For `N#Cc1ccc2c(c1)CN[C@H](C(F)(F)F)C2`, the Selectivity in test [3] was determined as 1.4. In the case of `CN1CCc2ccccc2C1`, in test [2], the affinity corresponds to a Ki of 50.1 µM. The “Log Ki” value in test [1] is reported as 6.62. For `C[C@@H]1CCc2ccc(Cl)c(Cl)c2CN1`, the affinity in test [2], expressed as Ki, was 0.417 µM. In addition, the “Log Ki” value in test [1] was 5.56.
